These results are taken from BindingDB's records for doi:10.1021/jo015665d (Merck Research Laboratories, 2001).

This assay concerns the target Polymerase acidic protein (Influenza A virus (strain A/Puerto Rico/8/1934 H1N1), UniProt P03433). The assay can be described thus: Inhibition of cap 1 ALMV primed Influenza transcriptase.
A word on the IC50: it is the concentration needed to halve the response being measured. Low values mean inhibition by little substance, high ones a need for much substance. For the compound `COCOn1c(=O)c(=Cc2cccc(F)c2)[nH]c(=CC(C)C)c1=O`, the IC50 is above 200 µM.
`COCOn1c(=O)c(=Cc2ccc(OC)cc2)[nH]c(=CC(C)C)c1=O` returned an IC50 above 200 µM.
`COCOn1c(=O)c(=Cc2ccccc2)[nH]c(=Cc2ccc(OC)cc2)c1=O` displayed an IC50 above 200 µM.
For the compound `COCOn1c(=O)c(=Cc2ccc(F)cc2)[nH]c(=CC(C)C)c1=O`, the IC50 is above 200 µM.
As for `CC(C)C=c1[nH]c(=Cc2ccc(F)cc2)c(=O)[nH]c1=O` [3-(4-fluorobenzylidene)-5-isobutylpyrazine-2,6(1H,3H)-dione], the IC50 was above 200 µM.
For the compound `COCOn1c(=O)c(=Cc2ccccc2)[nH]c(=CC(C)C)c1=O`, the IC50 is above 200 µM.
`COCOn1c(=O)c(=CC(C)C)[nH]c(=CC(C)C)c1=O` [(3Z)-5-isobutyl-1-(methoxymethoxy)-3-(2-methylpropylidene)pyrazine-2,6(1H,3H)-dione] came in with an IC50 above 200 µM.
In turn, `COCOn1c(=O)c(=Cc2ccccc2)[nH]c(=Cc2ccc(F)cc2)c1=O` had an IC50 above 200 µM.
With `COCOn1c(=O)c(=Cc2ccccc2F)[nH]c(=CC(C)C)c1=O` the figure was above 200 µM.
